{"source": "patent US20120076742A1", "about": "“Topical drug delivery system with dual carriers” (priority 2010, published 2012)", "key": {"[1]": {"tested_on": "Staph aureus, MRSA, Klebsiella pneumoniae, E. coli, Proteus vulgaris, Pseudomonas aeruginosa, Enterobacter cloacae, Acinetobacter lwoffi, Acinetobacter …", "experiment": "In-vitro Petri dish comparison of Lots and control antibiotics (FIGS. 16-36)", "format": "cell-based", "settings": "identical size drops (diameters of ZOA); FIGS. 16-25"}, "[2]": {"tested_on": "mouse embryonic stem cells and embryoid bodies", "settings": "cited from earlier work"}, "[3]": {"tested_on": "HL-60 cells", "settings": "cited from earlier work; for amount at which desired cellular responses occurred: priming experiments"}, "[4]": {"experiment": "Study I: vancomycin peaks and troughs in patient", "format": "in vivo, human", "settings": "1.5 g BID, Q12, seven doses", "protocol": "Fri 2/5: Detection of a Strep-A strain, confirmed by culture study. Shifted from gentamycin to vancomycin 1.5 g BID, Q12. Patient was kept on this dosing regimen until 2/8 (date of discharge from hospital).\nMon 2/8: Patient received the last of seven doses of vancomycin. Throughout all of this their peaks (within 1 hour of receiving vancomycin) and troughs (before receiving vancomycin) were normal (ranges not noted here). Patient was discharged from the hospital on this date."}, "[5]": {"tested_on": "MRSA", "settings": "IV, 8 days following admission", "procedure": "In this embodiment, the additional ingredient to hasten a third therapeutic tissue healing effect was added. This embodiment used vitamin D in a small but medically efficacious amount."}}}
{"compound": "CO[C@@]1(NC(=O)Cc2cccs2)C(=O)N2C(C(=O)O)=C(COC(N)=O)CS[C@@H]21", "note": "[Cefoxicillin]", "values": [{"measurement": "zones of inhibition of control active agents compared with the formulations of the invention", "setting": "[1]", "value": "considerably reduced zones of inhibition"}]}
{"compound": "CC[C@H]1OC(=O)[C@H](C)[C@@H](O[C@H]2C[C@@](C)(OC)[C@@H](O)[C@H](C)O2)[C@H](C)[C@@H](O[C@@H]2O[C@H](C)C[C@H](N(C)C)[C@H]2O)[C@](C)(O)C[C@@H](C)C(=O)[C@H](C)[C@@H](O)[C@]1(C)O", "note": "[Erythromycin]", "values": [{"measurement": "zones of inhibition of control active agents compared with the formulations of the invention", "setting": "[1]", "value": "considerably reduced zones of inhibition"}]}
{"compound": "C[S+](C)[O-]", "note": "[DMSO, dimethyl sulfoxide]", "values": [{"measurement": "effect on epigenetic profiles", "setting": "[2]", "value": "upregulation of mRNA and protein expression"}, {"measurement": "amount at which desired cellular responses occurred", "setting": "[3]", "value": "less than 2%"}, {"measurement": "subsequent retinoid-induced TGM2 expression", "setting": "[3]; priming of the cells by pretreatment", "value": "increases"}]}
{"compound": "CN[C@H](CC(C)C)C(=O)N[C@H]1C(=O)N[C@@H](CC(N)=O)C(=O)N[C@H]2C(=O)N[C@H]3C(=O)N[C@H](C(=O)N[C@H](C(=O)O)c4cc(O)cc(O)c4-c4cc3ccc4O)[C@H](O)c3ccc(c(Cl)c3)Oc3cc2cc(c3O[C@@H]2O[C@H](CO)[C@@H](O)[C@H](O)[C@H]2O[C@H]2C[C@](C)(N)[C@H](O)[C@H](C)O2)Oc2ccc(cc2Cl)[C@H]1O", "note": "[Vancomycin]", "values": [{"measurement": "peaks (within 1 hour of receiving) and troughs (before receiving)", "setting": "[4]", "value": "normal"}, {"measurement": "patient response to treatment", "setting": "[5]", "value": "did not respond"}, {"measurement": "zones of inhibition of control active agents compared with the formulations of the invention", "setting": "[1]", "value": "considerably reduced zones of inhibition"}]}
{"compound": "vitamin D", "values": [{"measurement": "amount at which desired cellular responses occurred", "setting": "[3]", "value": "about 100 nM"}]}
